From US9102648B1, “Bioavailable diacylhydrazine ligands for modulating the expression of exogenous genes via an ecdysone receptor complex” (Intrexon Corporation, priority 2003, dated 2015) come the findings set out here.

Test [1] addresses T1, Bombyx mori EcR (VP16 fusion, CVBE switch construct) (Bombyx mori, UniProt P49881).
T1 sequence (P49881 86-606): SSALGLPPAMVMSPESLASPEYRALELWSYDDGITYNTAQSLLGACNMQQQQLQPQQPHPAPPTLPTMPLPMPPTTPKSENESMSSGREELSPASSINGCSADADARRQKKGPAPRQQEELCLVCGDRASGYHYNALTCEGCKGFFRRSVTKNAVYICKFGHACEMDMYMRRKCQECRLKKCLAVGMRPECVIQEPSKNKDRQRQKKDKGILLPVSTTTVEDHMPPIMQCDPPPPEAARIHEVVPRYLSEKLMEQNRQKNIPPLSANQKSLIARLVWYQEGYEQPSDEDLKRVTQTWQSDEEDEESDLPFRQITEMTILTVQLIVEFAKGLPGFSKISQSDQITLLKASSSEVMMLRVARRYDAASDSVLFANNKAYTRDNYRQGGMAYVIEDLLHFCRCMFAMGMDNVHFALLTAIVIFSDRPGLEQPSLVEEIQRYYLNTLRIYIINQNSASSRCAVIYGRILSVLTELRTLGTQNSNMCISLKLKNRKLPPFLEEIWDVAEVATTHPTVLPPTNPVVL
T1 sequence (P19793 1-462 partner): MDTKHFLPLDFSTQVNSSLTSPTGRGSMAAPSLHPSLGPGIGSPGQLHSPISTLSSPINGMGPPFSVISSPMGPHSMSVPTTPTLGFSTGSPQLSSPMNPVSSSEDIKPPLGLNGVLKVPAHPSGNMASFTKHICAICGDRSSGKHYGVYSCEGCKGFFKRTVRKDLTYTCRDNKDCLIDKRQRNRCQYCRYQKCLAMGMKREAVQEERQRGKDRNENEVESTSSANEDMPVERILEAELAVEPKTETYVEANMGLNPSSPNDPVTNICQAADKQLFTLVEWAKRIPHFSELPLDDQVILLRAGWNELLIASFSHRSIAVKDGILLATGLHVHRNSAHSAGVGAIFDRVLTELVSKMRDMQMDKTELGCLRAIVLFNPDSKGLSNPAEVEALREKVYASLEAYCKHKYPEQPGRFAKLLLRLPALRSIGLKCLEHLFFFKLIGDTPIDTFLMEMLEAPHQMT
Kind of test: Z3 Assay (HEK-293 cells with CVBE and 6XEcRE LacZ, β-galactosidase reporter).

For test [2], the target named is GAL4 DBD-CfEcR(DEF)/VP16AD-MmRXRE (Choristoneura fumiferana, UniProt O77240). The test can be described thus: 13B3 Assay (CHO stable cell line, luciferase reporter). The procedure, abridged:
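CHO 13B3 clone stably expressing GAL4 DBD–CfEcR(DEF) and VP16AD–MmRXR(DE) with GAL4 RE–luciferase reporter; cells plated 24 h at 37 °C, then treated with ligands (DMSO stocks diluted 300-fold), 8 concentrations 33–0.01 μM.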
For orientation: In a reporter assay the amount or activity of a reporter protein is the signal.

Usually EC50 stands for the concentration giving half of the maximal effect. A low value points to an effect from little substance. Regarding `CCc1c(OC)cccc1C(=O)NN(C(=O)c1cc(C)cc(C)c1)C(C)(C)CO[Si](C)(C)C(C)(C)C` [RG-115665, 2-ethyl-3-methoxy-benzoic acid N′-[2-(tert-butyl-dimethyl-silanyloxy)-1,1-dimethyl-ethyl]-N′-(3,5-dimethyl-benzoyl)-hydrazide], the figures for the EC50 in test [1] and in test [2] were 12.2 µM and more than 50 µM, respectively. Moreover, the fold induction at 3.3 µM is 6 in test [1] (HEK293, read-out: Fold Induction, Z3 Assay, 3.3 uM) and 1 in test [2] (read-out: Fold Induction, 13B3 Assay, 3.3 uM). In addition, in test [1] (HEK293, read-out: Fold Induction, Z3 Assay, 33 uM), the fold induction at 33 µM was found to be 74. Moreover, in test [1] (maximum fold induction at any concentration relative to that of GS-E ligand, HEK-293 Z3 cells), the “Z3 assay Rel Max FI” value came out at 0.09. Also, the “13B3 assay Rel Max FI” value in test [2] (maximum fold induction at any concentration relative to that of GS-E ligand, CHO 13B3 cells) came out at 0.
